Test results taken from ChEMBL document CHEMBL1201862, “PubChem BioAssay data set” (2004).
Values belong to the molecule of their own block, whether it stands above or below them. Calls of active or inactive are those of the source.

Experiments:
[1] = cytotoxicity in HEK-293T cells, dose response, cytotoxicity control for TCR NF-kB inhibitor project, luminescence, T-cell screen hits (AID 489026); format: functional, cell-based;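 also: cells exposed to compound about 14 hours before the viability readout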
BJ = test: cytotoxicity toward BJ-TERT-LT-ST fibroblasts, dose response, cell-based, RAS-independent, luminescence (AID 1935); format: functional; conditions: Homo sapiens;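 also: BJ fibroblasts immortalized with TERT plus LT and ST oncogenes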
INS1 = test: beta cell apoptosis inhibitors, cytokine rescue, dose response, luminescence, retest (AID 449756); format: functional, cell-based; conditions: Rattus norvegicus;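 also: cell death triggered by IL-1 beta plus TNF-alpha plus IFN-gamma mixture; protective hits raise ATP signal compared with cytokine alone wells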
[2] = target: Sphingosine 1-phosphate receptor 4 (Homo sapiens, UniProt O95977); test: Fluorescence dose response cell-based high throughput screening assay for antagonists of the Sphingosine 1-Phosphate Receptor 4 (S1P4). [Related pubchem assays: 1524 (Confirmation in triplicates.), 1510 (Primary screen.)]; format: functional
[3] = target: Intestinal-type alkaline phosphatase (Mus musculus, UniProt P24822); test: PubChem AID 488785; format: functional
[4] = target: T1, Alkaline phosphatase, tissue-nonspecific isozyme (Homo sapiens, UniProt P05186); test: inhibition of tissue-nonspecific alkaline phosphatase – biochemical, dose response (AID 488882); format: functional
T1 sequence (P05186 whole entry): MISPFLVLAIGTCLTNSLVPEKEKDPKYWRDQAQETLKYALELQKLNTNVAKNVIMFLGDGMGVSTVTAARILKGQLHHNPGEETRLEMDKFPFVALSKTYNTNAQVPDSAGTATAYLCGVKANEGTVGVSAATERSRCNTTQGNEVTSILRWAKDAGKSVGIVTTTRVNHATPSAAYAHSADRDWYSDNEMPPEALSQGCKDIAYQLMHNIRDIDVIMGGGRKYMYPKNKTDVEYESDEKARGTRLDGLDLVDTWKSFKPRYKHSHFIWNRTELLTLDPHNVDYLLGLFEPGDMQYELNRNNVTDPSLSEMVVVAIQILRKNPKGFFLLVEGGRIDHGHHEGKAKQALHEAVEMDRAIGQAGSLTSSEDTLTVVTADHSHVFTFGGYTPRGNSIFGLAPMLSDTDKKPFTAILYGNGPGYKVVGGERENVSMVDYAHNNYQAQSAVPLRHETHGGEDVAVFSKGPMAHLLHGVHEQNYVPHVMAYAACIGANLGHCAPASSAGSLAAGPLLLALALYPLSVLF

[5] = target: Calcium/calmodulin-dependent protein kinase type II subunit beta (Homo sapiens, UniProt Q13554); format: functional
Activin receptor type-1 = Activin receptor type-1 (Homo sapiens, UniProt Q04771); test: Navigating the Kinome. Panel member name: ACVR1; format: functional
[6] = target: Tyrosine-protein kinase Lck (Homo sapiens, UniProt P06239); format: functional;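 also: lck was assayed as one member of a kinase panel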
[7] = target: Tyrosine-protein kinase Fer (Homo sapiens, UniProt P16591); format: functional;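 also: FER tested as one member of a kinome panel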
[8] = target: Serine/threonine-protein kinase N2 (Homo sapiens, UniProt Q16513); format: functional
[9] = target: Death-associated protein kinase 3 (Homo sapiens, UniProt O43293); format: functional;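 also: measured as one member of a kinome-wide profiling panel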
[10] = target: cAMP-dependent protein kinase catalytic subunit PRKX (Homo sapiens, UniProt P51817); format: functional
[11] = target: Proto-oncogene tyrosine-protein kinase receptor Ret (Homo sapiens, UniProt P07949); format: functional;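 also: measured within a kinome-wide profiling panel, RET as the panel member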
[12] = target: Protein kinase C zeta type (Homo sapiens, UniProt Q05513); format: functional;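 also: measured as one member of a broad kinase profiling panel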
[13] = target: Dual specificity tyrosine-phosphorylation-regulated kinase 1A (Homo sapiens, UniProt Q13627); format: functional;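 also: measured against DYRK1A as one member of a broad kinome profiling panel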
[14] = target: Tyrosine-protein kinase receptor TYRO3 (Homo sapiens, UniProt Q06418); format: functional;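 also: TYRO3 value obtained as one member of a kinome-wide profiling panel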
[15] = target: Tyrosine-protein kinase BTK (Homo sapiens, UniProt Q06187); format: functional
[16] = target: Tyrosine-protein kinase Fyn (Homo sapiens, UniProt P06241); format: functional
[17] = target: MAP kinase-activated protein kinase 2 (Homo sapiens, UniProt P49137); format: functional;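 also: measured as one member of a kinome-wide kinase panel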
[18] = target: Receptor-type tyrosine-protein kinase FLT3 (Homo sapiens, UniProt P36888); format: functional;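 also: FLT3 was tested as one member of a kinome-wide kinase panel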
[19] = target: Serine/threonine-protein kinase PLK3 (Homo sapiens, UniProt Q9H4B4); format: functional
[20] = target: Casein kinase I isoform delta (Homo sapiens, UniProt P48730); format: functional;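 also: measured as one member (CSNK1D) of a kinome panel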
[21] = target: Proto-oncogene tyrosine-protein kinase ROS (Homo sapiens, UniProt P08922); format: functional;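 also: ROS1 tested as one member of a kinome-wide kinase panel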
[22] = target: Dual specificity tyrosine-phosphorylation-regulated kinase 3 (Homo sapiens, UniProt O43781); format: functional;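 also: measured as one member of a broad kinase panel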
[23] = target: Calcium/calmodulin-dependent protein kinase type II subunit alpha (Homo sapiens, UniProt Q9UQM7); test: Navigating the Kinome. Panel member name: CAMK2A; format: functional
[24] = target: Maternal embryonic leucine zipper kinase (Homo sapiens, UniProt Q14680); format: functional
Misshapen-like kinase 1 = Misshapen-like kinase 1 (Homo sapiens, UniProt Q8N4C8); format: functional;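 also: kinome panel screen with MINK as the panel member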
[25] = target: Fibroblast growth factor receptor 3 (Homo sapiens, UniProt P22607); format: functional
[26] = target: Cyclin-dependent kinase 1 (Homo sapiens, UniProt P06493); format: functional;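 also: Kinome-wide panel profiling, with the target listed as panel member CDC2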
[27] = target: Dual specificity mitogen-activated protein kinase kinase 2 (Homo sapiens, UniProt P36507); test: Navigating the Kinome. Panel member name: MAP2K2; format: functional
[28] = target: Mitogen-activated protein kinase kinase kinase kinase 4 (Homo sapiens, UniProt O95819); format: functional
[29] = target: Serine/threonine-protein kinase pim-1 (Homo sapiens, UniProt P11309); format: functional
[30] = target: Eukaryotic elongation factor 2 kinase (Homo sapiens, UniProt O00418); format: functional
SRSF protein kinase 1 = SRSF protein kinase 1 (Homo sapiens, UniProt Q96SB4); format: functional;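 also: measured as one member of a kinome-wide kinase profiling panel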
[31] = target: Phosphorylase b kinase gamma catalytic chain, liver/testis isoform (Homo sapiens, UniProt P15735); format: functional;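 also: PHKG2 measured as one member of a kinome-wide kinase panel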
[32] = target: Leukocyte tyrosine kinase receptor (Homo sapiens, UniProt P29376); test: Navigating the Kinome. Panel member name: LTK; format: functional
[33] = target: 5'-AMP-activated protein kinase catalytic subunit alpha-1 (Homo sapiens, UniProt Q13131); format: functional
[34] = THP-1 cell cytotoxicity, dose response, cytotoxicity control for Vif-APOBEC3G degradation inhibitor project, THP-1 cells (AID 1117359); format: functional; conditions: Human immunodeficiency virus 1, THP-1

Serine/threonine-protein kinase pim-1, sequence (P11309 whole entry): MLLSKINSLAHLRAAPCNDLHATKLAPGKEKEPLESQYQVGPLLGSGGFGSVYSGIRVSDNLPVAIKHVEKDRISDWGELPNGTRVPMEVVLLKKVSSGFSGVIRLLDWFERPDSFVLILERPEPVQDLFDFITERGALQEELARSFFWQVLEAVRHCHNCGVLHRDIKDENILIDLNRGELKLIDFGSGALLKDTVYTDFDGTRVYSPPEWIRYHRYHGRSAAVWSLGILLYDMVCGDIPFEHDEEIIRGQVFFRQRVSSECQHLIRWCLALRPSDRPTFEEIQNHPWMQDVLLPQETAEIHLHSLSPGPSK
Mitogen-activated protein kinase kinase kinase kinase 4, sequence (O95819 whole entry): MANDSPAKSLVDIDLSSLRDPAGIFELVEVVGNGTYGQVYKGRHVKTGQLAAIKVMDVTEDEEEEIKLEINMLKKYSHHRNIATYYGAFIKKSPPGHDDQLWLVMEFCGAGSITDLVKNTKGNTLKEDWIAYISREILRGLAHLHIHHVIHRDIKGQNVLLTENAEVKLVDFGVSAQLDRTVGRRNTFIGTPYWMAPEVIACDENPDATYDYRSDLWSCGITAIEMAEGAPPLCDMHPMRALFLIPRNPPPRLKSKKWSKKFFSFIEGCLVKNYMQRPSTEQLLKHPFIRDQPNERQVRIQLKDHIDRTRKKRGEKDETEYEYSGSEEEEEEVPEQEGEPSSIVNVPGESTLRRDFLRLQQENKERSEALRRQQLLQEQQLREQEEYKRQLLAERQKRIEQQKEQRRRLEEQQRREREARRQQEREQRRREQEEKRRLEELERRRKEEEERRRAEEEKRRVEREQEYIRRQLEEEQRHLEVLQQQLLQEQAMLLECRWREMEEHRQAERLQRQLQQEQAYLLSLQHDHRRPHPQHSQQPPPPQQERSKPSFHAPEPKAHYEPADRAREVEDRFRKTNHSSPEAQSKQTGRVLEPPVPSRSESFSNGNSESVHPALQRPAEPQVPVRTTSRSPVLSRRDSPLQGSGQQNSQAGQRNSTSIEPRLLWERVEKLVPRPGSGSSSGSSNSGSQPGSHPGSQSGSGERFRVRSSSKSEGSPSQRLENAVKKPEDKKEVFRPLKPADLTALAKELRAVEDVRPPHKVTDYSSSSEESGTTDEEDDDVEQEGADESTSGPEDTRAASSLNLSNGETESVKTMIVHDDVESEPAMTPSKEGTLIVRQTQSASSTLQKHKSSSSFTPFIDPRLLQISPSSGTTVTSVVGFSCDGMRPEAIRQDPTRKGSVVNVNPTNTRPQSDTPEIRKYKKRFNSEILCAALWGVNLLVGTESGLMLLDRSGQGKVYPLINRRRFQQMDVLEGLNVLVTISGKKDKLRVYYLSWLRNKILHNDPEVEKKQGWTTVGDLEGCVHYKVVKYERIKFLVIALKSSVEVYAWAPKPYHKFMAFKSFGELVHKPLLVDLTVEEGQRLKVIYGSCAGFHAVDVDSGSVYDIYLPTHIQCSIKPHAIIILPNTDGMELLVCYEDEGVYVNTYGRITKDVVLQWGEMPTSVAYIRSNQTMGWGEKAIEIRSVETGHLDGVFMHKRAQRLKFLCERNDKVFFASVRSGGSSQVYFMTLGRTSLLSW
Dual specificity tyrosine-phosphorylation-regulated kinase 3, sequence (O43781 whole entry): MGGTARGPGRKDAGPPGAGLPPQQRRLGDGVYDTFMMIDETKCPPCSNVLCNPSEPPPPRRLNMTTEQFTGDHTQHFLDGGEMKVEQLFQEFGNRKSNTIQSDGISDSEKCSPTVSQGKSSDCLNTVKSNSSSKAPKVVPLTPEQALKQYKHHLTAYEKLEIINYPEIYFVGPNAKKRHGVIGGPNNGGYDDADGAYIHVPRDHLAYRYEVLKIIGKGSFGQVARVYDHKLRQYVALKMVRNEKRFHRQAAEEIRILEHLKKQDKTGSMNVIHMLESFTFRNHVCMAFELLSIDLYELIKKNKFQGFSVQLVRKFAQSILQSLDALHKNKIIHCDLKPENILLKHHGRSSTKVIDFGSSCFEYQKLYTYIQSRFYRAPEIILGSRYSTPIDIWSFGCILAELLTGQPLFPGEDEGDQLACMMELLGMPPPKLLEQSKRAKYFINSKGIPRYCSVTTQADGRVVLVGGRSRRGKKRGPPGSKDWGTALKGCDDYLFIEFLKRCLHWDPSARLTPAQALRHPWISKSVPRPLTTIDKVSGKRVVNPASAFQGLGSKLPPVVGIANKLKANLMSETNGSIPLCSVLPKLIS
Eukaryotic elongation factor 2 kinase, sequence (O00418 whole entry): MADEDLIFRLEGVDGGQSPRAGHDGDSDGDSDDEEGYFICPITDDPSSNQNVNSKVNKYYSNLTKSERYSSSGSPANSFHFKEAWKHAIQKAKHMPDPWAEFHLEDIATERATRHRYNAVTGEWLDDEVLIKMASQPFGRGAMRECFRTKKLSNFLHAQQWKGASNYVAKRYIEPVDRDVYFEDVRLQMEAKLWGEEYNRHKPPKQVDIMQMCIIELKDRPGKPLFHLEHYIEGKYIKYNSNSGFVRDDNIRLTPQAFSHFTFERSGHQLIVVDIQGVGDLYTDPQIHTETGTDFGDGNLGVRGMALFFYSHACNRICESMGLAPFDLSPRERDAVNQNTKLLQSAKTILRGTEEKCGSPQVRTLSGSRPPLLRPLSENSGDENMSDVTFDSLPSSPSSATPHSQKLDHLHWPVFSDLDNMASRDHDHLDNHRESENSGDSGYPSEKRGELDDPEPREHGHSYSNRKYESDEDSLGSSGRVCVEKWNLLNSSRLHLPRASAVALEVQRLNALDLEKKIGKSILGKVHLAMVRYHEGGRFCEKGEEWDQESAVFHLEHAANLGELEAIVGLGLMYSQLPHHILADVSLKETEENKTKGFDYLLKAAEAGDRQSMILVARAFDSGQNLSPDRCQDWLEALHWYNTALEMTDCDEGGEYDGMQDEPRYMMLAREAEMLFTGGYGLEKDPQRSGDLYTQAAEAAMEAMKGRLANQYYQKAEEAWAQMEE
Proto-oncogene tyrosine-protein kinase receptor Ret, sequence (P07949 whole entry): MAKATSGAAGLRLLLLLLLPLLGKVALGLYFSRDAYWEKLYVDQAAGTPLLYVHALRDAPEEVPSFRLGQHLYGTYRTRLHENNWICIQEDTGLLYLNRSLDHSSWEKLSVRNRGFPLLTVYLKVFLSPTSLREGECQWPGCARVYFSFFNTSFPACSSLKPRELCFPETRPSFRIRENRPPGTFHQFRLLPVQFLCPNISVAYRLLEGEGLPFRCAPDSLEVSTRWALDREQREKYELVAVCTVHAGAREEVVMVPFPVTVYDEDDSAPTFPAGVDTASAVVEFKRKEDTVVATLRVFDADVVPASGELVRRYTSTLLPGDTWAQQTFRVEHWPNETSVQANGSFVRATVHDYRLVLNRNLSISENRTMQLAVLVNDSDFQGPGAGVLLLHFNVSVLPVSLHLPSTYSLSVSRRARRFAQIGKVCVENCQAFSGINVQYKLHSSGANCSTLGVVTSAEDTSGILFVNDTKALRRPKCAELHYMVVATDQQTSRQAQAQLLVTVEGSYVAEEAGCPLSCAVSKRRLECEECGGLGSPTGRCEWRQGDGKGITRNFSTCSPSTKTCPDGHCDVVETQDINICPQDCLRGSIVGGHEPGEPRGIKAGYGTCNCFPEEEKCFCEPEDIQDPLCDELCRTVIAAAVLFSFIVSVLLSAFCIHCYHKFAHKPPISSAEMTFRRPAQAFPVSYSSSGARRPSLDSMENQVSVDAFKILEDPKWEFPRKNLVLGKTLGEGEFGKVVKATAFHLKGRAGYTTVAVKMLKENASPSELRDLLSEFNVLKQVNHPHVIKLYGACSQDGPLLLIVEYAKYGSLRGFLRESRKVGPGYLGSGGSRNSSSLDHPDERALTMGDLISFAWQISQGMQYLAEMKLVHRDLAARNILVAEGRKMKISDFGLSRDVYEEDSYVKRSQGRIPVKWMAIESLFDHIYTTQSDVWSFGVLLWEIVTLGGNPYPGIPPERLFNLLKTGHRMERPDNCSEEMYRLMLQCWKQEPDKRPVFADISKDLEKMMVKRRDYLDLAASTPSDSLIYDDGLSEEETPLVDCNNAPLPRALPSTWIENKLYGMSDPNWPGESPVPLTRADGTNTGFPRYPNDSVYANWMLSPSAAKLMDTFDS
Fibroblast growth factor receptor 3, sequence (P22607 whole entry): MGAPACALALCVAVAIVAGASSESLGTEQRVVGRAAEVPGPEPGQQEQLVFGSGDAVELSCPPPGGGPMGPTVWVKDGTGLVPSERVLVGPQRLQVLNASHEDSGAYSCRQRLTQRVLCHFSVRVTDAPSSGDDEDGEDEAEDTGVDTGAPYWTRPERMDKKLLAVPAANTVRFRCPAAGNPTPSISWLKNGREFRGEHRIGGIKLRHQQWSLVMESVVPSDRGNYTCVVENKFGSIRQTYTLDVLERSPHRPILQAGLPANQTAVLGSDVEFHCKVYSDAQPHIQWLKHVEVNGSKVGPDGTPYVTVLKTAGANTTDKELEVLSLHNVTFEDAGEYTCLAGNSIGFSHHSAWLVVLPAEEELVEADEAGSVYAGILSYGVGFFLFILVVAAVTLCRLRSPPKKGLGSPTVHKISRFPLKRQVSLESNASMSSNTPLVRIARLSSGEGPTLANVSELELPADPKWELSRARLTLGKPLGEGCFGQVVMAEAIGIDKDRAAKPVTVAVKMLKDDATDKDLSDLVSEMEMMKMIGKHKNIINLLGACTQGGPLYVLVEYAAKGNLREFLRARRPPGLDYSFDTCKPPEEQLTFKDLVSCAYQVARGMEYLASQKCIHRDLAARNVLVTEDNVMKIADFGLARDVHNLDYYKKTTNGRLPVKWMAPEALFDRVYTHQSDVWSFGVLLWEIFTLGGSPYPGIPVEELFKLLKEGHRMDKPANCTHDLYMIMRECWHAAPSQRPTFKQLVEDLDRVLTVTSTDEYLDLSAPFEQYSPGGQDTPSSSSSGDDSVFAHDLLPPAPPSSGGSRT

Compound: COC(=O)C1CN(C#N)N(c2ccc(Cl)cc2)C12c1ccccc1-c1ccccc12 (centres undefined)
IC50 [1]: 56.6 µM (inactive)
EC50 (BJ): 2.49 µM (inconclusive)
AC50 (INS1): 2.5 µM (active)
IC50 [2]: 0.313 µM (active)

IC50 [3]: 7.75 µM (active)
IC50 [4]: 12.8 µM (active)
Compound: O=C(NN1C(=O)CSC1=S)C(=O)NN1C(=O)CSC1=S

Ki [5]: > 7.94 µM (inactive)
Ki (Activin receptor type-1): 0.631 µM (active)
Ki [6]: > 25.1 µM (inactive)
Ki [7]: > 1.58 µM (inactive)
Ki [8]: > 7.94 µM (inactive)
Ki [10]: 5.01 µM (active)
Ki [11]: 0.794 µM (active)
Ki [12]: > 7.94 µM (inactive)
Ki [13]: 2 µM (active)
Ki [14]: > 7.94 µM (inactive)
Ki [15]: > 39.8 µM (inactive)
Ki [16]: > 7.94 µM (inactive)
Ki [17]: > 7.94 µM (inactive)
Ki [18]: 10 µM (active)
Ki [19]: > 7.94 µM (inactive)
Ki [20]: 6.31 µM (active)
Ki [21]: > 2 µM (inactive)
Ki [22]: > 6.31 µM (inactive)
Ki [23]: 50.1 µM (active)
Ki [24]: > 1.58 µM (inactive)
Ki (Misshapen-like kinase 1): 3.16 µM (active)
Ki [25]: > 2 µM (inactive)
Ki [26]: > 7.94 µM (inactive)
Ki [27]: 7.94 µM (active)
Ki [28]: 20 µM (active)
Ki [29]: 12.6 µM (active)
Ki [30]: > 3.98 µM (inactive)
Ki (SRSF protein kinase 1): 7.94 µM (active)
Ki [31]: > 5.01 µM (inactive)
Ki [32]: 1.26 µM (active)
Ki [33]: > 25.1 µM (inactive)
Compound: Nc1noc2cccc(-c3cccc(O)c3)c12
Ki [9]: > 25.1 µM (inactive)

Compound: O=C1NC(=S)S/C1=C\C=C\c1ccc([N+](=O)[O-])o1
CC50 [34]: 4.04 µM (active)
